According to ChEMBL document CHEMBL1201862, “PubChem BioAssay data set” (2004):
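48-hour exposure; five concentrations; linearly interpolated endpoints. GI50 marks 50% less growth.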 Active and inactive are the calls of the source. Rule as the data show it: active = GI50 up to about 1.1 µM and inactive = higher.

Experiments:
Experiment in all cases: NCI-60 cell line screen, 48 h
[1] = system: SK-MEL-2
[2] = system: MDA-MB-231
[3] = system: U-251
[4] = system: MCF7
[5] = system: HCT-116
[6] = system: RPMI-8226
[7] = system: COLO 205
[8] = system: SW-620
[9] = system: NCI/ADR-RES
[10] = system: OVCAR-4
[11] = system: PC-3
[12] = system: SN12C
[13] = system: 786-0
[14] = system: NCI-H522
[15] = system: LOX IMVI
[16] = system: HL-60
[17] = system: UO-31
[18] = system: OVCAR-3
[19] = system: UACC-62
[20] = system: SK-OV-3

Measured: GI50

Cc1c(CN)c(C)c(CN)c(C)c1CN
inactive: [1] > 100 µM | [2] > 100 µM | [3] > 100 µM | [4] > 100 µM | [5] > 100 µM | [6] > 100 µM | [7] > 100 µM | [8] > 100 µM | [9] > 100 µM | [10] > 100 µM | [11] > 100 µM | [12] > 100 µM | [13] > 100 µM | [14] 86.7 µM | [15] > 100 µM | [16] > 100 µM

N/C(=N\n1c(=S)[nH]c2ccccc2c1=O)Nn1c(=S)[nH]c2ccccc2c1=O
inactive: [1] 46.6 µM | [2] 53.3 µM | [3] 27.9 µM | [4] 33.7 µM | [5] 16.8 µM | [6] 22.4 µM | [7] 28.8 µM | [8] 18.9 µM | [9] 47.6 µM | [17] 14.3 µM | [18] > 100 µM | [19] 75 µM | [10] 49.9 µM | [11] 51.8 µM | [13] 15.3 µM | [14] 13.3 µM | [15] 18.8 µM | [20] > 100 µM

COc1ccc(/C=N/n2c(Cc3ccc(Cl)cc3)n[nH]c2=O)cc1
inactive: [1] 21.6 µM | [2] 8.93 µM | [3] 14.3 µM | [4] 77.8 µM | [5] 24.9 µM | [6] > 100 µM | [7] 32 µM | [8] > 100 µM | [9] 32.8 µM | [17] > 100 µM | [18] > 100 µM | [19] 52.2 µM | [10] > 100 µM | [11] 92.5 µM | [12] 59.7 µM | [13] 17.7 µM | [20] 36 µM

OC(COC(c1ccccc1)(c1ccccc1)c1ccccc1)C(O)CC1SCCS1 (configuration not stated)
inactive: [1] 11.5 µM | [2] 16.2 µM | [3] 21.8 µM | [4] 21.3 µM | [5] 16.4 µM | [6] 5.22 µM | [7] 14.7 µM | [8] 29 µM | [9] 16.3 µM | [17] 10.9 µM | [18] 22.2 µM | [19] 17.1 µM | [11] 11.8 µM | [12] 17.7 µM | [13] 17.6 µM | [15] 13.5 µM | [20] 19 µM | [16] 13.9 µM

N=c1[nH]cnc2c1nnn2C1C=CC(COS(N)(=O)=O)C1 (configuration not stated)
inactive: [1] 3.01 µM | [2] 8.07 µM | [3] 4.15 µM | [4] 10.4 µM | [5] 5.24 µM | [6] 3.59 µM | [7] 3.59 µM | [8] 11.6 µM | [9] 5.2 µM | [17] 5.62 µM | [18] 10.7 µM | [19] 3.37 µM | [10] 6.84 µM | [11] 3.93 µM | [12] 15.9 µM | [13] 2.19 µM | [15] 4.56 µM | [20] 24.6 µM | [16] 3.42 µM

O=c1c2c3c(sc2nc2n1N=CN(c1ccccc1)C2)CCCC3
inactive: [1] > 100 µM | [2] > 100 µM | [3] > 100 µM | [4] > 100 µM | [5] > 100 µM | [6] > 100 µM | [7] > 100 µM | [8] > 100 µM | [9] > 100 µM | [17] > 100 µM | [18] > 100 µM | [19] > 100 µM | [10] > 100 µM | [11] > 100 µM | [12] > 100 µM | [13] > 100 µM | [14] > 100 µM | [15] > 100 µM | [20] > 100 µM
